Legend:
truncated human CYP17A1 = molecular target: T1, truncated human CYP17A1 (Homo sapiens, UniProt P05093, C22K/P23T/R20A/R21K); assay: Progesterone 17α-hydroxylation, HPLC separation with UV detection; assay type: biochemical
T1 sequence (P05093 with tags, fused parts or gaps limits assumed): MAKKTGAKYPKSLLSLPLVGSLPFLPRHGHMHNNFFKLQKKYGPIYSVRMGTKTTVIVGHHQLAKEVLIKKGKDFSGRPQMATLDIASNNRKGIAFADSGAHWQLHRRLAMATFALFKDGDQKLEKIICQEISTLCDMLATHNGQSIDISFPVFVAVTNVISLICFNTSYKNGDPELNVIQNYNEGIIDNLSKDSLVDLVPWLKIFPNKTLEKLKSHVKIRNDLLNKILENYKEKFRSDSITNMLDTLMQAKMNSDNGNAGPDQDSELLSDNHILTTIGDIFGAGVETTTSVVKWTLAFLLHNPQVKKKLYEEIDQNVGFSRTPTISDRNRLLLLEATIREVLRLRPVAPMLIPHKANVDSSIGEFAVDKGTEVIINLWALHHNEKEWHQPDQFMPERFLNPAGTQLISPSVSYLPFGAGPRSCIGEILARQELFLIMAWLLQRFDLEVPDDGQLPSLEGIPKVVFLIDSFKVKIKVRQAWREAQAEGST

[1] = molecular target: T2, truncated, His-tagged human CYP17A1 (Homo sapiens, UniProt P05093, C22K/P23T/R20A/R21K); assay: UV/vis spectral shift ligand binding assay
T2 sequence (P05093 with tags, fused parts or gaps limits assumed): T1 sequence (P05093 with tags, fused parts or gaps limits assumed)

Structure (SMILES): C[C@]12CC[C@H](O)CC1=CC[C@@H]1[C@@H]2CC[C@]2(C)C(n3cnc4ccccc43)=CC[C@@H]12 [TOK-001, 3β-hydroxy-17-(1H-benzimidazole-1-yl)androsta-5,16-diene]
- IC50 (truncated human CYP17A1): 503 ± 1 nM
- Kd [1]: < 100 nM

Structure (SMILES): C[C@]12CC[C@H](O)CC1=CC[C@@H]1[C@@H]2CC[C@]2(C)C(c3cccnc3)=CC[C@@H]12 [abiraterone, 17-(3-pyridyl)androsta-5,16-dien-3β-ol]
- IC50 (truncated human CYP17A1): 201 ± 1 nM
- Kd [1]: < 100 nM

Structure (SMILES): CC(=O)[C@H]1CC[C@H]2[C@@H]3CCC4=CC(=O)CC[C@]4(C)[C@H]3CC[C@]12C [progesterone]
- Kd [1]: 229 ± 14 nM
